Experiment [1] deals with T1, Savinase 16L (subtilisin) (Lederbergia lenta, UniProt P29600).
T1 construct: purchased Novozymes Savinase 16L
T1 sequence (P29600 1-269): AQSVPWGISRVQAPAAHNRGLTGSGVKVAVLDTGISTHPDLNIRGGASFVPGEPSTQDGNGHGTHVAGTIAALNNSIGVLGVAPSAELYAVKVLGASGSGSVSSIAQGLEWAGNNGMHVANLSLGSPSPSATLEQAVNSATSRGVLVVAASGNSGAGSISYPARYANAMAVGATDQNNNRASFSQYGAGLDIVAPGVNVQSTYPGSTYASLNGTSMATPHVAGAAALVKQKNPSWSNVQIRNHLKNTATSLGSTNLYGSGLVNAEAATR
In words: Storage stability in liquid detergent: residual protease activity (hydrolysis of N,N-dimethylcasein at 40° C., pH 8.3). It counts as biochemical. Conditions: for Residual protease activity, 4 weeks at 35° C. (% of initial activity): inhibitor dosage 'yes'. On the procedure:
(§1) General experimental details: Detergents containing Savinase 16L and either X—B^1—B^0—H or X—B^1—NH—CHR—CHOH—SO3Na; or Savinase 16L; are placed in closed glasses at −18° C.; 35° C. and 40° C. Residual activities of protease and lipase are measured after different times using standard analytical methods (protease by hydrolysis of N,N-dimethylcasein at 40° C., pH 8.3 and lipase by hydrolysis of pNp-valerate at 40° C., pH 7.7). The inhibitor and protease may also be added individually to the detergent.
(§2) As an example of liquid detergents with a stabilized subtilisin formulation, the compositions described in Table 1 were made.
(§3) As another example of detergents with a stabilized subtilisin formulation, the compositions described in Table 3 were made.

For experiment [2], the system named is Lipex 100L (lipase). In words: Storage stability in liquid detergent: residual lipase activity (hydrolysis of pNp-valerate at 40° C., pH 7.7). It counts as biochemical. On the procedure:
as §1, §2, §3

[3] abbreviates: Detergent B, 2% Na formate alone, no inhibitor.
Where [4] appears, read: Detergent A, no Na formate, inhibitor 21 ppm (peptide aldehydes) or 26 ppm (hydrosulfite adduct) in detergent.
[5] abbreviates: Detergent B, 2% Na formate, inhibitor 21 ppm (peptide aldehydes) or 26 ppm (hydrosulfite adduct) in detergent.

In the case of `O=C[O-].[Na+]` [Na formate, sodium formate], the “Residual protease activity, 2 weeks at 40° C. (% of initial activity)” value in experiment [1] (setting [3]) turned out to be 1%. In experiment [2] (setting [3]), the “Residual lipase activity, 2 weeks at 35° C. (% of initial activity)” value worked out at 3%.

With Cbz-VAL-H, the results for the “Residual protease activity, 2 weeks at 40° C. (% of initial activity)” value in experiment [1] (setting [4]) and in experiment [1] (setting [5]) were 2% and 49%, respectively. The “Residual lipase activity, 2 weeks at 35° C. (% of initial activity)” value in experiment [2] (setting [4]) is 13%; in experiment [2] (setting [5]), 30%.

Take Cbz-GAY-H: the entries for the “Residual protease activity, 2 weeks at 40° C. (% of initial activity)” value in experiment [1] (setting [4]) and in experiment [1] (setting [5]) were 5% and 71%, respectively. The “Residual protease activity, 4 weeks at 35° C. (% of initial activity)” value is given as 43% in experiment [1] (Detergent E (12% LAS, pH 8.4), no Na formate) and 88% in experiment [1] (Detergent F (12% LAS, pH 8.4), 2% Na formate). The “Residual lipase activity, 2 weeks at 35° C. (% of initial activity)” value in experiment [2] (setting [4]) came out at 16%; in experiment [2] (setting [5]) it was 32%; in experiment [2] (Detergent E (12% LAS, pH 8.4), no Na formate, inhibitor dosage 'yes') it was 14%; in experiment [2] (Detergent F (12% LAS, pH 8.4), 2% Na formate, inhibitor dosage 'yes') it was 27%.

Values taken from patent US20140228274A1, “Liquid Detergent Composition” (priority 2011, published 2014).
